Test system: un-transformed soybean explants
Assay: Glyphosate dose response study on un-transformed soybean explants in tissue culture media
Format: in vivo, soybean (Glycine max)
Conditions: for Number of Explants at Various Stages of Selection: SE-1 / Number of Explants at Various Stages of Selection: SE-2 / Number of Explants at Various Stages of Selection: SI-2 / Number of Explants at Various Stages of Selection: End of SE-2: 49 explants at CC; for Number of Explants at Various Stages of Selection: End of SE-2: six weeks on selection
Experimental: Initially, a dose response study was completed. To test the effect of glyphosate on the explants, glyphosate was added to media used from the shoot initiation stage and onwards. Glyphosate was tested from the range of 0.025-0.2 mM. Incorporation of glyphosate in tissue culture media within this concentration range has been reported in soybean (Clemente et al., 2000; Hinchee et al., 1996; Martinell et al., 2006; Martinell et al., 1999; Martinell et al., 2002), tobacco (Singer et al., 1985), cotton (Zhao et al., 2006) and wheat (Hu et al., 2003). Five concentrations of glyphosate were tested for culturing of un-transformed soybean explants. The concentrations incorporated into the SI-2 media were 0.025 mM, 0.05 mM, 0.075 mM, 0.1 mM and 0.2 mM. The un-transformed soybean explants were maintained on the same rate of glyphosate selection for all the successive stages of subculture from SI-2 media to the completion of the tissue culturing protocol. The numbers of healthy explants were counted at each subculture stage. Dead explants were discarded and healthy explants were subcultured further onto appropriate media.
Growth of the explants was also retarded on glyphosate containing media. Next the cotyledons were removed and the explants were subcultured from SI-2 to SE media. At the end of another two weeks of selection on SE media, significant differences in the growth of the explants were observed when the explants were exposed to different levels of glyphosate. The retarded growth of the explants was proportionate to the increasing dose of glyphosate. Similarly the number of dead explants was also proportional to the increasing dose of glyphosate. The number of dead explants increased as the dose of glyphosate was increased. […] Subsequently, three different concentrations of glyphosate (e.g., 0.025 mM, 0.05 mM and 0.1 mM) were incorporated into the selection schemes for Agrobacterium-mediated transformation of the soybean split-seed explants comprising a portion of an embryonic axis.

[1] = 0.025 mM glyphosate in media from SI-2 onwards
[2] = 0.05 mM glyphosate in media from SI-2 onwards
[3] = 0.075 mM glyphosate in media from SI-2 onwards
[4] = 0.1 mM glyphosate in media from SI-2 onwards
[5] = 0.2 mM glyphosate in media from SI-2 onwards

With `O=C(O)CNCP(=O)(O)O` [Glyphosate, glyphosate] the “Number of Explants at Various Stages of Selection: SE-1” value (shortened to “Number … of Selection: SE-1”) [1] was 41, the “Number of Explants at Various Stages of Selection: SE-2” value (shortened to “Number … of Selection: SE-2”) [1] was 38 and the “Number of Explants at Various Stages of Selection: SI-2” value (from here on “Number … of Selection: SI-2”) [1] was 43. For the same compound, the “Number of Explants at Various Stages of Selection: End of SE-2” value (from here on “Number … of Selection: End of SE-2”) [1] was “none of the soybean explants were able to survive”, the “Number … of Selection: SE-1” value [2] was 45 and the “Number … of Selection: SE-2” value [2] was 38. For the same compound, the “Number … of Selection: SI-2” value [2] was 45, the “Number … of Selection: End of SE-2” value [2] was 0 and the “Number … of Selection: SE-1” value [3] was 45. For the same compound, the “Number … of Selection: SE-2” value [3] was 21, the “Number … of Selection: SI-2” value [3] was 47 and the “Number … of Selection: End of SE-2” value [3] was 0. The “Number … of Selection: SE-1” value [4] was 41, the “Number … of Selection: SE-2” value [4] was 13 and the “Number … of Selection: SI-2” value [4] was 44. The “Number … of Selection: End of SE-2” value [4] was 0, the “Number … of Selection: SE-1” value [5] was 31 and the “Number … of Selection: SE-2” value [5] was 1. For the same compound, the “Number … of Selection: SI-2” value [5] was 42, the “Number … of Selection: SE-2” value (0.2 mM glyphosate in media from SI-2 onwards, listed as glyphosate) was “only one explants survived” and the “Number … of Selection: End of SE-2” value [5] was 0. For the same compound, the “yellowing of the cotyledons” value (end of culturing on SI-2 media (about 2 weeks), 0.025-0.2 mM glyphosate, extent proportional to dose) was “explants showed yellowing of the cotyledons” and the “growth of the explants” value (glyphosate containing media, 0.025-0.2 mM, proportionate to dose) was “retarded”.

— patent US20140173780A1, “SOYBEAN TRAN[…] EFFICIENT AND HIGH-[…] PRODUCTION” (DOW AGROSCIENCES LLC, priority 2012, published 2014)
